Data as given in article PMC4459817, “Vasculotide reduces endothelial permeability and tumor cell extravasation in the absence of binding to or agonistic activation of Tie2” (EMBO Molecular Medicine, 2015).
“Also recorded” adds a separate entry of the source.

Test system: LM2-4luc lung metastases in SCID mice
Experiment: experimental LM2-4luc lung metastasis model (IV)
Type: in vivo, human LM2-4luc cells in CB-17 SCID mice
Settings: for lung metastases by in vivo bioluminescent imaging: 24DPI, SU 60 mg/kg/day pretreatment, one-way ANOVA, Fig2B–D
Source text: (C and G) Photographs of typical metastases in the lungs and caudal lymphatics, respectively. […] Geometric means ± 95%CI are depicted in (D and H); P values were derived by one-way ANOVA (D) and Kruskal–Wallis test (H). […] TEXT PRINTED IN THE PICTURE: (A) Vasculotide (VT): Hazard ratio = 0.13 (95% CI, 0.03 to 0.63) | (A) SU+VT: Hazard ratio = 0.19 (95% CI, 0.04 to 0.81) DOUBTS OF THE COPYIST ABOUT THIS PICTURE: Vasculotide (VT), Hazard ratio: small print; 0.13 could be 0.15 or 0.18, and the CI limits 0.03 and 0.63 are uncertain in the digits 3/5/6/8 / SU+VT, Hazard ratio: small print; 0.19 could be 0.18 or 0.16, and the CI limits 0.04 and 0.81 are uncertain in the digits / Panel A: each hazard ratio is printed under a pair of legend entries (Vehicle / Vasculotide (VT), and Sunitinib (SU) / SU+VT). Assigning it to the VT-treated arm of each pair is my assumption.
In vivo experiments were performed in strict accordance with protocols approved by the Sunnybrook Research Institute Animal Care Committee, accredited by the Canadian Council of Animal Care. All surgical, imaging, and euthanasia procedures were performed under inhaled isoflurane anesthesia. Experimental metastasis models involved injections of 10^6 tumor cells, suspended in 200 μl serum-free DMEM, into the mouse tail vein. LM2-4^luc implantations were performed on 6 to 8-week-old female CB-17 SCID mice (Charles River Canada). HT29^luc implantations were performed on 19- to 20-week-old male and 11- to 12-week-old female YFP-SCID mice (bred in-house). SN12^luc implantations were performed on 9-week-old male YFP-SCID mice. Spontaneous metastasis models involved orthotopic implantations of 2 × 10^6 LM2-4^luc cells/50 μl serum-free DMEM in the right inguinal mammary fat pads of 6-week-old female CB-17 SCID mice.
Sunitinib malate (SU), from Pfizer or LC Laboratories, and its vehicle were formulated as described before (Ebos et al, [2009]). SU was administered by oral gavage (PO), once daily, at a dose of 60 mg/kg mouse weight. Vasculotide (VT): VT synthesized at the Sunnybrook Research Institute (Toronto, ON, Canada) was used in experiments described in Fig2(A–D) and Supplementary Fig S5(A and B). VT synthesized by American Peptide (Sunnyvale, CA, USA) was used in experiments described in Fig5. VT synthesized by Bachem UK Ltd was used in experiments described in Figs1, 2(E–H), 3, 4, 6–9, Supplementary Figs S2, and S5(C and D). Lyophilized product was reconstituted in PBS to 500 μg/500 μl stock aliquots and stored at −80°C. As needed, stock aliquots were diluted with PBS to a 250 ng/50 μl working concentration and stored in 0.4–1 ml aliquots at −80°C. VT (at a standard dose of 250 ng/mouse) or its vehicle (PBS) was administered to mice by intraperitoneal (IP) injections every other day.
5. Bioluminescence imaging (BI) of tumor burden
For in vivo BI: Mice were injected intraperitoneally with 150mg/kg luciferin (Promega) 10 minutes prior to and anesthetized with isofluorane just before luminescent pseudocolor imaging (uniform settings: CCD camera locked at -105 °C, exposure=60s, f/1, subject size=1.5cm, bin=8, FOV=23.2cm, full image correction) using the IVIS 200 Imaging System (Caliper/PerkinElmer). Using the Living Image software (v2.50.1, Xenogen), weekly images were analyzed under uniform color range on grayscale photographic overlay. Total fluxes (photons/sec) were quantified within consistent regions of interest and statistically compared ideally at a timepoint before any deaths have occurred. […]

Row | Compound | lung metastases by in vivo bioluminescent imaging (VT 250 ng/2d, listed as SU) | lung metastases by in vivo bioluminescent imaging (VT 250 ng/2d, listed as VT) | confirmatory repeats: VT trends on lung metastases and survival (Supplementary Fig S5) | survival (VT 250 ng/2d, with or without SU 60 mg/kg/day pretreatment, n = 5–6, Fig2A, listed as VT) | extension of median survival (VT 250 ng/2d IP monotherapy, n = 5–6, Fig2A) [%]
1 | CCN(CC)CCNC(=O)c1c(C)[nH]c(/C=C2\C(=O)Nc3ccc(F)cc32)c1C [sunitinib, reference compound] | promoted lung metastases; also recorded: preferentially accelerated experimental lung metastasis, but not lymphatic metastasis | – | – | – | –
2 | CHHHRHSF [Vasculotide, 4-armed maleimide-functionalized polyethylene glycol (PEG) backbone to link together four cysteine-capped T7 peptides, that is, CHHHRHSF] | – | trend of reduced lung metastases; also recorded: effectively suppressing SU-induced promotion of lung metastases, as seen by IVBI (P < 0.05 | The same trends were reproduced | significant survival benefit (P = 0.01); also recorded: prolonged median survival | ~20
